This note sets out measurements from ChEMBL document CHEMBL1133970, “Novel 3-dodecanoylindole-2-carboxylic acid inhibitors of cytosolic phospholipase A(2)” (Bioorg Med Chem Lett, 2001).

The assay is filed under the species Homo sapiens. Put plainly: Cytosolic phospholipase A2 (c-PLA2) inhibitory potency of the compound was evaluated by measuring the calcium ionophore A-23,187-induced arachidonic acid release from human platelets. The class given is functional.
Regarding `CCCCCCCCCCCC(=O)c1c(C(=O)O)n(CCCCCCCC(=O)O)c2ccccc12`, the 50% inhibitory concentration (IC50) (commonly the concentration that inhibits the measured activity by half) amounted to 2.5 µM. For `CCCCCCCCCCCC(=O)c1c(C(=O)O)n(CCOc2ccc(C(=O)O)cc2)c2ccccc12` the value was 0.86 µM; for `CCCCCCCCCCCC(=O)c1c(C(=O)O)n(CCSc2ccc(C(=O)O)cc2)c2ccccc12`, 2.5 µM; for `CCCCCCCCCCCC(=O)c1c(C(=O)O)n(CCOc2ccc(CC(=O)O)cc2)c2ccccc12`, 2.6 µM.
